# Data as given in patent publication US20230212517A1, “METHODS FOR GENERATING HEMATOPOIETIC STEM CELLS” (The Brigham and Women's Hospital, Inc., priority 2018, published 2023).
# “Also recorded” adds a separate entry of the source.
# Key:
# E11.5 AGM cells = assay: RNA-sequencing / whole transcriptome analyses of treated E11.5 AGM cells; assay type: cell-based, mouse; conditions: Venn comparison of up-regulated genes, endothelial-to-HSC transition
# Procedure: RNA-sequencing analyses were performed to measure gene expression patterns in mouse AGM treated with cyclic strain or pharmacological modulators. Using computational algorithms, hierarchical clustering was performed of differentially expressed genes as well as measured their overrepresented biological processes and pathways. Gene expression clusters of differentially expressed genes were analyzed and their mean expression level across cell populations compared. Next, Venn comparison of up- and down-genes was constructed to analyze candidate(s) important for cyclic strain- or pharmacological modulator(s)-mediated the endothelial-to-HSC transition. Furthermore, Dnmt3b and Dnmt3a protein expressions were analyzed in nuclear fractions of mouse AGM cells using EPIQUIK methyltransferase assay kits. Data are presented as mean±s.d. unless otherwise noted. Statistical analyses were performed by paired or un-paired Student's t-tests. […]
# Total RNA from E11.5 mouse AGM explant cultures was isolated (control, stretch, Yoda1 and 4αPDD conditions) with the RNAEASY MiniKit (QIAGEN). […] We mapped our sequenced read fragments to the mouse reference genome GRCm38 (ENSEMBL release 69) using the Genomic Short-Read Nucleotide Alignment program (version 2012 Jul. 20). […] Gene expression clusters of differentially expressed genes were analyzed and their mean expression level across cell populations compared. […]
# [1] = tested on: bone marrow-derived Cd71+ Ter119+ sorted (donor) erythroid cells; assay: qRT-PCR of globin transcripts in donor erythroid cells of primary transplant; assay type: in vivo, mouse; conditions: primary transplant of treated E11.5 AGM
# Procedure: (§1) Pulsating blood vessels like conditions were stimulated in vitro using FLEXCELL FX-4000 cell stretching bioreactor machine. To analyze roles of pharmacological targets in regulating the endothelial-to-HSC transition, mouse embryo-derived AGM or whole mouse embryo were exposed ex vivo with biomechanical stretching, chemicals, or drugs. Next, hematopoietic colony formation assays were performed by incubating mouse AGM-derived cells in StemCell M3434 media for seven days. Serial transplantation of AGM-derived HSCs in lethally irradiated SJL mice were performed. The stem cell frequency upon biomechanical stretching was analyzed using a limiting dilution assay. To characterize properties of AGM-HSC-derived blood cells in primary transplants, percentage chimerism and reconstitution was measured using FACS, globin transcripts were analyzed using quantitative reverse transcriptase-PCR, myeloperoxidase amount was measured using PICOKINE ELISA kit, TCR-β rearrangement was analyzed using PCR for TCR-β locus, pre-immune IG detection was analyzed using Thermo-Fisher Mouse Ig Isotyping kit, and delayed-type hypersensitivity was analyzed by injecting sheep RBC (Rockland Immunochemicals) in the footpad of pre-sensitized mice.
# FACS was used to sort erythroid precursors (Cd45.2^+, Ter119^+, Cd71^+) from the unlysed bone marrow isolated from AGM-transplanted mice. […]
# [2] = tested on: bone marrow-derived Gr1+Mac1+ sorted (donor) neutrophils; assay: ELISA quantification of myeloperoxidase (MPO) in donor neutrophils of primary transplant; assay type: in vivo, mouse; conditions: overnight culture; primary transplant of treated E11.5 AGM
# Procedure: as §1, with “mice. […]” for “mice.”
# Dnmt3b = Dnmt3b protein level in nuclear fractions of E11.5 AGM cells (EPIQUIK assay kit); assay type: cell-based, mouse; conditions: nuclear fractions of treated E11.5 AGM cells
# Procedure: (§2) RNA-sequencing analyses were performed to measure gene expression patterns in mouse AGM treated with cyclic strain or pharmacological modulators. Using computational algorithms, hierarchical clustering was performed of differentially expressed genes as well as measured their overrepresented biological processes and pathways. Gene expression clusters of differentially expressed genes were analyzed and their mean expression level across cell populations compared. Next, Venn comparison of up- and down-genes was constructed to analyze candidate(s) important for cyclic strain- or pharmacological modulator(s)-mediated the endothelial-to-HSC transition. Furthermore, Dnmt3b and Dnmt3a protein expressions were analyzed in nuclear fractions of mouse AGM cells using EPIQUIK methyltransferase assay kits. Data are presented as mean±s.d. unless otherwise noted. Statistical analyses were performed by paired or un-paired Student's t-tests. Significance was set at P<0.05.
# (§3) Nuclear extracts from AGM explants were harvested using an EPIQUIK Nuclear Extraction Kit (Epigentek Group Inc.). Dnmt3b and Dnmt3a protein levels were analyzed using a colorimetric EPIQUIK methyltransferase Assay Kit (Epigentek Group Inc.), according to the manufacturer's instructions. Concentration of Dnmt3b and Dnmt3a is relative to 1 μg of nuclear extract proteins.
# Dnmt3a = Dnmt3a protein level in nuclear fractions of E11.5 AGM cells (EPIQUIK assay kit); assay type: cell-based, mouse; conditions: nuclear fractions of treated E11.5 AGM cells
# Procedure: as §2, §3
structure (smiles),measurement,setting,value
"Clc1cccc(Cl)c1CSc1nnc(-c2cnccn2)s1 [Yoda1, 2-[5-[[(2,6-Dichlorophenyl)methyl]thio]-1,3,4-thiadiazol-2-yl]-pyrazine]",Dnmt3b transcript expression,E11.5 AGM cells,specifically stimulate
same,Gimap6 transcript expression,E11.5 AGM cells,specifically stimulate
same,"hemoglobin type (β-major adult, εγ and β-H1 embryonic) expressed in donor erythroid cells",[1],reconstitutes to red cells containing adult hemoglobin
same,myeloperoxidase (MPO) level of donor neutrophils,[2],reconstitute to functional myeloid cells displaying sufficient MPO levels
same,Dnmt3b protein expression level,Dnmt3b,specifically stimulates Dnmt3b protein expression levels
same,Dnmt3a protein expression level,Dnmt3a,not Dnmt3a; also recorded: without impacting the expression of Dnmt3a
